Experimental data from patent US9296734B2 (AMGEN INC., priority 2013, dated 2016).
Like-named read-outs stand apart in the source and are kept apart here.

Key:
[1] = higher compound dose given for three months; cited from earlier work
[2] = target: Beta Secretase enzyme (BACE) (Homo sapiens (Human), UniProt P56817); assay: In vitro enzymatic BACE FRET assay; assay type: biochemical; settings: read-out: BACE 1 FRET assay IC50
Outline: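 Reactions ran in 0.05 M acetate pH 4.2 with 10% DMSO final and 100 uM genapol. They were started with 50 nM peptide FRET substrate (fluorophore and quencher flanking the BACE cleavage site) and incubated one hour. Tris addition raised the pH to neutral to stop the reaction before fluorescence reading.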

[3] = system: Aβ40 in conditioned medium of cells stably expressing Amyloid Precursor Protein (APP); assay: In vitro BACE cell-based assay (Aβ40 sandwich ELISA); settings: Homo sapiens, read-out: HEK cell assay IC50
Outline: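 Secreted Aβ40 was quantified by sandwich ELISA (pAb40 capture, biotinylated 6E10 detection, Europium time-resolved fluorescence). IC50 derived from percent inhibition versus concentration.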

Cathepsin D (Cat D) = Cathepsin D (Cat D) (Homo sapiens (Human), UniProt P07339); assay: In vitro enzymatic Cathepsin D (Cat D) FRET assay; assay type: biochemical; settings: read-out: CatD IC50
Outline: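 CHO-expressed recombinant Cat D cleaves a fluorophore/quencher FRET peptide (20 nM) in 0.05 M citrate pH 3.5, 5 mM CHAPS, 10% DMSO final, over 1 h. Tris addition neutralizes pH to stop the reaction; fluorescence read at excitation 500 nm, emission 580 nm.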

[4] = system: Abeta 40 in CSF and brain; assay: In vivo inhibition of beta-secretase: Abeta 40 reduction in CSF and brain of the rat; settings: 10 mpk (unless otherwise noted), after 4 hrs
Excerpt: In Vivo Inhibition of Beta-Secretase
Several animal models, including mouse, rat, dog, and monkey, may be used to screen for inhibition of beta-secretase activity in vivo following administration of a test compound sample. Animals used in this invention can be wild type, transgenic, or gene knockout animals. […] A separate group of animals receive 2% hydroxypropyl methylcellulose, 1% Tween80 alone, containing no test compound, and serve as a vehicle-control group. At the end of the test period, animals are sacrificed and brain tissues, plasma or cerebrospinal fluid are collected. […] Homogenates are centrifuged at 355,000 g, 4° C. for 30 minutes. CSF or brain supernatants are then analyzed for the presence of A-beta peptide by specific sandwich ELISA assays based on ECL (Electrochemiluminescence) technology. For example, rat Abeta40 is measured using biotinylated-4G8 (Signet) as a capture antibody and Fab40 (an in-house antibody specific to the C-terminal of Abeta40) as a detection antibody.
Actual vehicles used: Oral: 2% HPMC, 1% Tween80, pH 2.2

Aβ in lumbar CSF = settings: healthy volunteers, oral dosing of 30 or 90 mg; cited from earlier work
CSF Aβ40 = settings: healthy individuals, 36 h post-dose, cited from earlier work
[5] = HEK293, average IC50, HEK cells
[6] = Abeta 40, rat CSF, read-out: % reduction of rat CSF levels at 10 pmk
[7] = Abeta 40, rat brain, read-out: % reduction of rat brain levels at 10 mpk
[8] = average IC50, BACE enzyme assay
[9] = HEK293, average IC50, HEK cell assay
[10] = average IC50, cathepsin D enzyme assay

Sequence of Beta Secretase enzyme (BACE) (P56817 46-501): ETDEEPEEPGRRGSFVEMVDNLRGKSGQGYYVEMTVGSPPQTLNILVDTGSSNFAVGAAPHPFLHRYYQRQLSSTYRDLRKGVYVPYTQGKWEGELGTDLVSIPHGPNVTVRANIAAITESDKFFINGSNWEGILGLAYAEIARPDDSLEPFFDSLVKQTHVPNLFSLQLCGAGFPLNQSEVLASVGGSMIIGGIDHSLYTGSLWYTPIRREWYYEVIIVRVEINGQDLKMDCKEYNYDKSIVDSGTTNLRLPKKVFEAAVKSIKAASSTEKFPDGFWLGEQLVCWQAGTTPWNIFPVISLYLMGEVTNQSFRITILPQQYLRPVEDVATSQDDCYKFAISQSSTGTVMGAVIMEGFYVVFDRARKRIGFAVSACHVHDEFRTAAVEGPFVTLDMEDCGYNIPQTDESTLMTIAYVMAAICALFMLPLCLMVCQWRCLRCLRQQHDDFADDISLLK
Sequence of Cathepsin D (Cat D) (P07339 65-412, species assumed): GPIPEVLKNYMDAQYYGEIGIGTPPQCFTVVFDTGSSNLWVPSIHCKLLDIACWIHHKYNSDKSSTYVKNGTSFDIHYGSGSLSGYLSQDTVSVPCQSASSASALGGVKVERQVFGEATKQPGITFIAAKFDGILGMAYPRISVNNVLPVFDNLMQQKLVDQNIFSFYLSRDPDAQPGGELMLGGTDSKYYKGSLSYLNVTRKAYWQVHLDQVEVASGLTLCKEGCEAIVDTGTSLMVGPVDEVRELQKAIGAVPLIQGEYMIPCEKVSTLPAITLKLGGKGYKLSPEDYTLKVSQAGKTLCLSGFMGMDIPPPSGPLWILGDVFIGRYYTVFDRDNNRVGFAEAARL

Structure (SMILES)	IC50 ([2]; average IC50)	IC50 [3, 5]	IC50 (Cathepsin D (Cat D); average IC50)	inhibition in vivo at 10 mg/kg [4, 6]	inhibition in vivo at 10 mg/kg [4, 7]	further results
C[C@@]1(c2cc(-c3cncnc3)c(F)cc2F)CCSC(N)=N1 [LY 2811376]	–	–	–	–	–	rat toxicology finding [1]: damaged the pigment epithelium of the rat's eye
C[C@@]1(c2cc(NC(=O)c3ccc(Cl)cn3)cnc2F)C[C@@H](C(F)(F)F)OC(N)=N1 [Example 60, N-(5-((4S,6S)-2-amino-4-methyl-6-(trifluoromethyl)-5,6-dihydro-4H-1,3-oxazin-4-yl)-6-fluoropyridin-3-yl)-5-chloropicolinamide]	52.8 nM	13.5 nM	> 400000 nM	79%	72%	–
C[C@@]1(c2cc(-c3cncnc3)c(F)cc2F)CCSC(N)=N1 [LY2811376, (S)-4-(2,4-difluoro-5-pyrimidin-5-yl-phenyl)-4-methyl-5,6-dihydro-4H-[1,3]thiazin-2-ylamine]	–	–	–	–	–	Aβ reductions in lumbar CSF (Aβ in lumbar CSF): Prominent and long-lasting Aβ reductions in lumbar CSF
CC#CCOc1cnc(C(=O)Nc2cc(F)c(F)c([C@]3(CF)C[C@@H](C(F)(F)F)OC(N)=N3)c2)cn1 [Example 155, N-(3-((4S,6S)-2-amino-4-(fluoromethyl)-6-(trifluoromethyl)-5,6-dihydro-4H-1,3-oxazin-4-yl)-4,5-difluorophenyl)-5-(but-2-yn-1-yloxy)pyrazine-2-carboxamide]	–	–	–	26%	11%	IC50 [2, 8]: 0.87 nM; IC50 [3, 9]: 3.67 nM; IC50 (Cathepsin D (Cat D); [10]): > 400000 nM
C[C@@]1(c2nc(NC(=O)c3ccc(C#N)cn3)ccc2F)C[C@@H](C(F)(F)F)OC(N)=N1 [Example 79, N-(6-((4S,6S)-2-amino-4-methyl-6-(trifluoromethyl)-5,6-dihydro-4H-1,3-oxazin-4-yl)-5-fluoropyridin-2-yl)-5-cyanopicolinamide]	30.4 nM	11.5 nM	> 400000 nM	83%	79%	–
C#CCOc1cnc(C(=O)Nc2cc(F)c(F)c([C@]3(CF)C[C@@H](C(F)(F)F)OC(N)=N3)c2)cn1 [Example 154, N-(3-((4S,6S)-2-amino-4-(fluoromethyl)-6-(trifluoromethyl)-5,6-dihydro-4H-1,3-oxazin-4-yl)-4,5-difluorophenyl)-5-(prop-2-yn-1-yloxy)pyrazine-2-carboxamide]	–	–	–	67%	71%	IC50 [2, 8]: 1.4 nM; IC50 [3, 9]: 9.6 nM; IC50 (Cathepsin D (Cat D); [10]): > 400000 nM
COc1cnc(C(=O)Nc2cc(C)c(F)c([C@]3(CF)C[C@@H](C(F)(F)F)OC(N)=N3)c2)cn1 [Example 227, N-(3-((4S,6S)-2-amino-4-(fluoromethyl)-6-(trifluoromethyl)-5,6-dihydro-4H-1,3-oxazin-4-yl)-4-fluoro-5-methylphenyl)-5-methoxypyrazine-2-carboxamide]	–	–	–	69%	65%	IC50 ([2]; average): 30 nM; IC50 ([3]; HEK293, HEK cells, average): 23 nM; IC50 (Cathepsin D (Cat D); average): > 400000 nM
CN1C(=N)N[C@](C)(c2cc(NC(=O)c3ccc(F)cn3)ccc2F)CS1(=O)=O [MK-8931]	–	–	–	–	–	reduction of CSF Aβ40 concentrations (CSF Aβ40; single dose of 100 mg): 75%; reduction of CSF Aβ40 concentrations (CSF Aβ40; single dose of 550 mg): 92%
Cc1cc(NC(=O)c2ccc(Cl)cn2)cc([C@]2(CF)C[C@@H](C(F)(F)F)OC(N)=N2)c1F [Example 224, N-(3-((4S,6S)-2-amino-4-(fluoromethyl)-6-(trifluoromethyl)-5,6-dihydro-4H-1,3-oxazin-4-yl)-4-fluoro-5-methylphenyl)-5-chloropicolinamide]	–	–	–	62%	51%	IC50 ([2]; average): 13 nM; IC50 ([3]; HEK293, HEK cells, average): 7 nM; IC50 (Cathepsin D (Cat D); average): 515000 nM

The next lines start with results.

IC50 ([2]; average IC50)	IC50 [3, 5]	IC50 (Cathepsin D (Cat D); average IC50)	Structure (SMILES)	inhibition in vivo at 10 mg/kg [4, 6]	inhibition in vivo at 10 mg/kg [4, 7]	further results
18 nM	32 nM	> 400000 nM	NC1=N[C@](CF)(c2cc(NC(=O)c3ccc(Cl)cn3)ccc2F)C[C@@H](C(F)(F)F)O1 [Example 3, N-(3-((4S,6S)-2-amino-4-(fluoromethyl)-6-(trifluoromethyl)-5,6-dihydro-4H-1,3-oxazin-4-yl)-4-fluorophenyl)-5-chloropicolinamide]	72%	58%	–
23.8 nM	26.5 nM	> 400000 nM	COc1cnc(C(=O)Nc2ccc(F)c([C@]3(CF)C[C@@H](C(F)(F)F)OC(N)=N3)c2)c(Cl)c1 [Example 50, N-(3-((4S,6S)-2-amino-4-(fluoromethyl)-6-(trifluoromethyl)-5,6-dihydro-4H-1,3-oxazin-4-yl)-4-fluorophenyl)-3-chloro-5-methoxypicolinamide]	50%	22%	–
